Laboratory results from patent US11753373B2, “Protease inhibitors as antivirals” (priority 2021, dated 2023).
Read-outs that look alike come from different tables or passages of the source.

Tests used:
[1] = test system: SARS-CoV-2; assay: Anti-viral in vitro PRNT assay in Vero E6 cells; type: cell-based; conditions: for EC50: read-out: anti-SARS-CoV2 (PRNT) in Vero E6 EC50
[2] = type: in vitro ADME; conditions: extraction ratio, compound at 1 uM; for Liver Microsomal Stability (ER) SD rat: SD rat liver microsomes 0.5 mg/mL; for Liver Microsomal Stability (ER) Beagle dog: beagle dog liver microsomes 0.5 mg/mL; for Liver Microsomal Stability (ER) Monkey: monkey liver microsomes 0.5 mg/mL; for Liver Microsomal Stability (ER) Mouse: mouse liver microsomes 0.5 mg/mL
Procedure: (§1) Metabolic stability of novel protease inhibitors was determined via liver microsomal stability assay. Human, mouse, SD rat, beagle dog or monkey liver microsomes were incubated with the test compound for 5 to 60 minutes at 37° C., and then the remaining parent compound was quantified by LC-MS/MS. Percentage of the test compound remaining, half-life (t1/2), in vitro intrinsic clearance (CLint, in vitro), in vivo intrinsic clearance (CLint, in vivo), hepatic clearance (CLh) and extraction ratio (ER) were calculated.
(§2) Procedure: The assay was done as described in Baranczewski, P. et al. (2006) Pharmacological Reports 58:453-472; Pearson, P. and Wienkers, L. (2008) Handbook of Drug Metabolism, 2nd Edition. CRC Pres, P.478; and Venkatesh, P. et al. (2007) Biol. Pharm. Bull. 30:1021-2024. 0.625 mg/mL liver microsomes solution was prepared by mixing 2325 μL 100 mM of K-phosphate buffer (pH 7.4) containing 2.5 mM of MgCl2, 1.25 mM of EDTA, and 75 μL microsomes (20 mg/mL) in a vial for each species.
(§3) Positive control compound: (±) Verapamil hydrochloride (Cat No.: V4629; Lot No.: MKBV4993V; Source: Sigma)
(§4) 40 μL aliquots of the liver microsome/test compound mixture were dispensed into 96-well plate in triplicate and pre-warmed the mixture for 5 minutes at 37° C. Then, 10 μL of 5 mM NADPH solution was added to each well to initiate the reaction, and gently mixed. The samples were incubated at 37° C. with gentle shaking. (Final concentrations: compound=1 μM; liver microsomes protein=0.5 mg/mL; MgCl2=2 mM; EDTA=1 mM; ACN=0.1%; DMSO=0.05%).
(§5) For 0-min samples, 200 μL of ACN containing internal standard was added to 40 μL of liver microsome/test compound mixture, followed by addition of 5 mM NADPH, and mixed gently.
(§6) For negative control: 40 μL of liver microsome/test compound mixture was incubated at 37° C. with gentle shaking for 60 minutes, followed by addition of 200 μL ACN containing 1% FA and internal standard and 10 μL of 5 mM NADPH, mixed gently.
(§7) All samples were centrifuged at 4° C. for 20 minutes at 4,000 rpm. Then, 100 μL of the supernatant from each sample was transferred to a new 96-well plate and 100 μL of ultrapure water containing 1% FA was added to each well, and mixed gently. Samples were analyzed by LC-MS/MS.
(§8) Data Analysis: Peak area ratio (Peak Area of test compound/Peak Area of internal standard) was used to represent the concentration of compound in each sample. The remaining percentage (% Remaining) at appointed time points was calculated versus the concentration of compound at 0 min. The Ln value of the remaining percentage was linearly fitted against the incubation time.
(§9) The half-life and clearance were calculated using the following equations:
(§10) Determined percent of the remaining test compound: % remaining=[area at tx/average areas at t0]×100 (1) % metabolized=[100−% remaining] (2)
(§11) Calculated the half-life (t1/2) using the slope (k) of the log-linear regression from the concentration of remaining parent compound versus time (min) relationship: t1/2 (min)=−ln 2/k. (3)
(§12) Clint, in vitro (mL/min/mg) Clint,in vitro=k/c,(c:Liver microsome concentration in the incubation system) (4)
(§13) Hepatic Clearance (CLh) CLh=Clint,in vivo*Hepatic Blood Flow (mL/min/kg)/(Hepatic Blood Flow (mL/min/kg)+Clint,in vivo) (6)
(§14) Extraction ratio (ER): ER=CLint,in vivo/(Qh+CLint,in vivo)*100,Qh:liver blood flow (7)

[3] = type: in vitro ADME, Human; conditions: extraction ratio, compound at 1 uM, human liver microsomes 0.5 mg/mL
Procedure: as §1, §2, §3
as §4, with “shaking.” for “shaking. (Final concentrations: compound=1 μM; liver microsomes protein=0.5 mg/mL; MgCl2=2 mM; EDTA=1 mM; ACN=0.1%; DMSO=0.05%).”
as §5, §6, §7, §8, §9, §10, §11, §12, §13, §14

[4] = Vero E6 cells, 1000 pfu, 3 days, plaque reduction

## COC(=O)[C@H](C[C@@H]1CCNC1=O)NC(=O)[C@H](CC1CCCCC1)NC(=O)OCc1ccccc1 [Compound B-2-a, methyl (S)-2-((S)-2-(((benzyloxy)carbonyl)amino)-3-cyclohexylpropan-amido)-3-((S)-2-oxopyrrolidin-3-yl)propanoate]
[1]; [4]
  anti-SARS-CoV2 (PRNT) in Vero E6 EC50 (μM): inactive

## CC(C)[C@H](NC(=O)[C@@H]1[C@@H]2[C@H](CN1C(=O)[C@@H](NC(=O)C(F)(F)F)C(C)(C)C)C2(C)C)C(=O)CCl [Compound F-2-b]
[2]
  Liver Microsomal Stability (ER) SD rat: 0.65
  Liver Microsomal Stability (ER) Beagle dog: 0.55
  Liver Microsomal Stability (ER) Monkey: 0.57
  Liver Microsomal Stability (ER) Mouse: 0.50
[1]; [4]
  EC50: 0.42 µM
[3]
  Liver Microsomal Stability (ER) Human: 0.81

## COc1cccc2[nH]c(C(=O)N[C@@H](CC(C)C)C(=O)N[C@@H](C[C@@H]3CCNC3=O)C(=O)CO)cc12 [Compound A-5-d]
[2]
  Liver Microsomal Stability (ER) SD rat: 0.11
  Liver Microsomal Stability (ER) Beagle dog: 0.07
  Liver Microsomal Stability (ER) Mouse: 0.38
[1]; [4]
  EC50: 3.5 µM
[3]
  Liver Microsomal Stability (ER) Human: 0.09

## CC(C)C[C@H](NC(=O)OCc1ccccc1)C(=O)N[C@H](C#N)C[C@@H]1CCNC1=O [Compound B-1-e]
[2]
  Liver Microsomal Stability (ER) SD rat: 0.48
  Liver Microsomal Stability (ER) Beagle dog: 0.37
  Liver Microsomal Stability (ER) Monkey: 0.11
  Liver Microsomal Stability (ER) Mouse: 0.00
[1]; [4]
  EC50: 10.5 µM
[3]
  Liver Microsomal Stability (ER) Human: 0.24

## COC(=O)[C@H](C)NC(=O)[C@@H]1[C@@H]2[C@H](CN1C(=O)[C@@H](NC(=O)C(F)(F)F)C(C)(C)C)C2(C)C [Compound F-1-a, methyl ((1R,2S,5S)-3-((S)-3,3-dimethyl-2-(2,2,2-trifluoroacetamido)butanoyl)-6,6-dimethyl-3-azabicyclo[3.1.0]hexane-2-carbonyl)-L-alaninate]
[1]
  anti-SARS-CoV2 (PRNT) in Vero E6 EC50 (μM): inactive

## CC(C)C[C@H](NC(=O)c1cc2ccccc2[nH]1)C(=O)N[C@@H](C[C@@H]1CCNC1=O)C(=O)O [Compound A-1-e, (2S)-2-[(2S)-2-[(1H-indol-2-yl)formamido]-4-methylpentanamido]-3-[(3S)-2-oxopyrrolidin-3-yl]propanoic acid]
[2]
  Liver Microsomal Stability (ER) SD rat: −0.02
  Liver Microsomal Stability (ER) Beagle dog: 0.02
  Liver Microsomal Stability (ER) Mouse: 0.09
[3]
  Liver Microsomal Stability (ER) Human: 0.00

## COc1cccc2[nH]c(C(=O)N[C@@H](CC(C)C)C(=O)N[C@H](C#N)C[C@@H]3CCNC3=O)cc12 [Compound A-5-b]
[2]
  Liver Microsomal Stability (ER) SD rat: 0.22
  Liver Microsomal Stability (ER) Beagle dog: 0.12
  Liver Microsomal Stability (ER) Monkey: 0.47
  Liver Microsomal Stability (ER) Mouse: 0.11
[1]; [4]
  anti-SARS-CoV2 (PRNT) in Vero E6 EC50 (μM): inactive
[3]
  Liver Microsomal Stability (ER) Human: 0.08

## COC(=O)[C@@H](NC(=O)[C@@H]1[C@@H]2[C@H](CN1C(=O)[C@@H](NC(=O)C(F)(F)F)C(C)(C)C)C2(C)C)C(C)C [Compound F-2-a, methyl ((1R,2S,5S)-3-((S)-3,3-dimethyl-2-(2,2,2-trifluoroacetamido)-butanoyl)-6,6-dimethyl-3-azabicyclo[3.1.0]hexane-2-carbonyl)-L-valinate]
[1]
  anti-SARS-CoV2 (PRNT) in Vero E6 EC50 (μM): inactive

## CC(C)C[C@H](NC(=O)OCc1ccccc1)C(=O)N[C@@H](C[C@@H]1CCNC1=O)C(=O)CCl [Compound B-1-c]
[1]
  EC50: 2.29 µM

## CC(C)C[C@H](NC(=O)OCc1ccccc1)C(=O)N[C@H](C=O)C[C@@H]1CCNC1=O [Compound B-1-b, benzyl ((S)-4-methyl-1-oxo-1-(((S)-1-oxo-3-((S)-2-oxopyrrolidin-3-yl)propan-2-yl)amino)pentan-2-yl)carbamate]
[1]; Severe acute respiratory syndrome coronavirus 2, Vero C1008, 72 h
  EC50: 1.13 µM

## C[C@@H](C#N)NC(=O)[C@@H]1[C@@H]2[C@H](CN1C(=O)[C@@H](NC(=O)C(F)(F)F)C(C)(C)C)C2(C)C [Compound F-1-c]
[1]
  anti-SARS-CoV2 (PRNT) in Vero E6 EC50 (μM): inactive

## COC(=O)[C@H](C[C@@H]1CCNC1=O)NC(=O)[C@H](CC(C)C)NC(=O)c1cc2ccccc2[nH]1 [Compound A-1-a, methyl (S)-2-((S)-2-(1H-indole-2-carboxamido)-4-methylpentanamido)-3-((S)-2-oxopyrrolidin-3-yl)propanoate]
[1]; [4]
  anti-SARS-CoV2 (PRNT) in Vero E6 EC50 (μM): inactive

## CC(C)[C@@H](C#N)NC(=O)[C@@H]1[C@@H]2[C@H](CN1C(=O)[C@@H](NC(=O)C(F)(F)F)C(C)(C)C)C2(C)C [Compound F-2-c]
[1]
  anti-SARS-CoV2 (PRNT) in Vero E6 EC50 (μM): inactive

## COC(=O)[C@H](C[C@@H]1CCNC1=O)NC(=O)[C@H](CC(C)C)NC(=O)OCc1ccccc1 [Compound B-1-a, methyl (S)-2-((S)-2-(((benzyloxy)carbonyl)-amino)-4-methylpentanamido)-3-((S)-2-oxopyrrolidin-3-yl)propanoate]
[1]; [4]
  anti-SARS-CoV2 (PRNT) in Vero E6 EC50 (μM): inactive

## C[C@@H](C#N)NC(=O)[C@@H]1[C@@H]2[C@H](CN1C(=O)[C@@H](NC(=O)C(F)(F)F)C1CC1)C2(C)C [Compound F-3-a]
[1]
  anti-SARS-CoV2 (PRNT) in Vero E6 EC50 (μM): inactive

## CC(C)C[C@@H](NC(=O)c1cc2c(F)cccc2[nH]1)C(=O)N[C@H](C#N)C[C@@H]1CCNC1=O [Compound A-3-b]
[2]
  Liver Microsomal Stability (ER) SD rat: 0.37
  Liver Microsomal Stability (ER) Beagle dog: 0.06
  Liver Microsomal Stability (ER) Mouse: 0.37
[3]
  Liver Microsomal Stability (ER) Human: 0.18

## C=CC(=O)N[C@@H](NC(=O)[C@@H]1[C@@H]2[C@H](CN1C(=O)[C@@H](NC(=O)C(F)(F)F)C(C)(C)C)C2(C)C)C(C)C [Compound F-2-d]
[1]
  anti-SARS-CoV2 (PRNT) in Vero E6 EC50 (μM): inactive

## C=CC(=O)N[C@@H](NC(=O)[C@@H]1[C@@H]2[C@H](CN1C(=O)[C@@H](NC(=O)C(F)(F)F)C1CC1)C2(C)C)C(C)C [Compound F-4-b]
[1]
  anti-SARS-CoV2 (PRNT) in Vero E6 EC50 (μM): inactive

## COC(=O)[C@H](C[C@@H]1CCNC1=O)NC(=O)[C@@H]1[C@@H]2[C@H](CN1C(=O)[C@@H](NC(=O)C(F)(F)F)C(C)(C)C)C2(C)C [Compound D-1-a, methyl (2S)-2-{[(1R,2S,5S)-3-[(2S)-3,3-dimethyl-2-(trifluoroacetamido)-butanoyl]-1,5-dihydrogenio-6,6-dimethyl-3-azabicyclo[3.1.0]hexan-2-yl]formamido}-3-[(3S)-2-oxopyrrolidin-3-yl]propanoate]
[1]
  anti-SARS-CoV2 (PRNT) in Vero E6 EC50 (μM): inactive

## CC(C)(C)[C@H](NC(=O)C(F)(F)F)C(=O)N[C@@H](CC1CCCCC1)C(=O)N[C@H](C#N)C[C@@H]1CCNC1=O [Compound D-4-a]
[2]
  Liver Microsomal Stability (ER) SD rat: 0.29
  Liver Microsomal Stability (ER) Beagle dog: 0.21
  Liver Microsomal Stability (ER) Mouse: 0.72
[3]
  Liver Microsomal Stability (ER) Human: 0.46

## O=C[C@H](C[C@@H]1CCNC1=O)NC(=O)[C@H](CC1CCCCC1)NC(=O)c1cc2ccccc2[nH]1 [Compound A-2-c]
[1]
  EC50: 0.64 µM

## C[C@@H](C=O)NC(=O)[C@H](CC1CCCCC1)N(C(=O)OCc1ccccc1)C1CC1 [Compound E-1-b]
[1]
  anti-SARS-CoV2 (PRNT) in Vero E6 EC50 (μM): inactive

## C=CC(=O)[C@H](C[C@@H]1CCNC1=O)NC(=O)[C@H](CC(C)C)NC(=O)OCc1ccccc1 [Compound B-1-d]
[1]
  anti-SARS-CoV2 (PRNT) in Vero E6 EC50 (μM): inactive

## C=CC(=O)N[C@H](C)NC(=O)[C@@H]1[C@@H]2[C@H](CN1C(=O)[C@@H](NC(=O)C(F)(F)F)C(C)(C)C)C2(C)C [Compound F-1-d]
[1]
  anti-SARS-CoV2 (PRNT) in Vero E6 EC50 (μM): inactive
